Reference: US7691848B2, “Pyrrolobenzodiazepine arylcarboxamides and derivatives thereof as follicle-stimulating hormone receptor antagonists” (Wyeth, priority 2005, dated 2010)
Where a name gives a salt, the structure may show the parent alone.

Key:
human FSH receptor = biological target: T1, human FSH receptor (Homo sapiens, UniProt P23945); experiment: Follicle-Stimulating Hormone Receptor-Dependent Cre-Luciferase Reporter Gene Assay (CHO FSH-R 6CRE-Luc cells); assay type: cell-based; settings: for IC50: dose-response format, in presence of EC50 of purified human FSH
T1 construct: host or cells: CHO-K1 (CHO FSH-R 6CRE-Luc, 1D7 cells)
T1 sequence (P23945 18-695): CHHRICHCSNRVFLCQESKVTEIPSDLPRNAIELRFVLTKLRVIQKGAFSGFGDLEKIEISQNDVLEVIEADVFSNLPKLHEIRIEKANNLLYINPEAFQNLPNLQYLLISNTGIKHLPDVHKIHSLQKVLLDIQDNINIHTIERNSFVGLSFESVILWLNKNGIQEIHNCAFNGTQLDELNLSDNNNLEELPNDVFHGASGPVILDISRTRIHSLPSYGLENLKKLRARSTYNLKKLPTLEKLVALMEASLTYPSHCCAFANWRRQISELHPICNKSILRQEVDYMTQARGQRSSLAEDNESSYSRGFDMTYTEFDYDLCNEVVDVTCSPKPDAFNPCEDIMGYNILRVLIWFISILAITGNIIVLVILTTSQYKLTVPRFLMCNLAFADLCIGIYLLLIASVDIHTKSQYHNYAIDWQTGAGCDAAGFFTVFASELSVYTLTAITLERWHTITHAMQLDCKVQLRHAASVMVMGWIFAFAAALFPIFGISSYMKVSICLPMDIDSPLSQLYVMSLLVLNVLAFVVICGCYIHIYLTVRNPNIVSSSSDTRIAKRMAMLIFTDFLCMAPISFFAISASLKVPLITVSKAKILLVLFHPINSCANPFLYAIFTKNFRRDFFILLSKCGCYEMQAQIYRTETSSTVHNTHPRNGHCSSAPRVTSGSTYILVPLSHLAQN
Description: Follicle-Stimulating Hormone Receptor-Dependent Cre-Luciferase Reporter Gene Assay for the Identification of Follicle-Stimulating Hormone (FSH) Antagonists
A Chinese hamster ovarian cell line that stably produces the human FSH receptor and a luciferase reporter gene regulated by cAMP response elements was used to identify and determine the relative potencies of human FSH receptor antagonists. See for example, Kelton, C. A., et al. Mol. Cell. Endocrinol. 89:141-151 (1992), Tilly, J. L., et al. Endocrinology 131:799-806(1992), and George, S. E., et al. J. Biomol. Screening 2:235-240 (1997).
Compound Vehicle: Stock compounds were solubilized in an appropriate vehicle, e.g., phosphate buffered saline (PBS) or dimethyl sulfoxide (DMSO), at 30 mM. The compounds were subsequently diluted in DMSO to working dilutions of 1 and 20 or 30 mM for 2-dose testing format and 1 μM-10 mM for dose-response format. The DMSO dilutions were diluted 500-fold in sterile growth medium [D-MEM/F-12 (GIBCO/BRL; Grand Island, NY) containing 15 mM HEPES, 2 mM 1-glutamine, pyridoxine hydrochloride, phenol red and 5% FetalClone® II (HyClone Laboratories, Inc; Logan, Utah), 0.2% DMSO, 100 units penicillin G/ml, and 100 μg streptomycin sulfate/ml (GIBCO/BRL)]. The concentration of the vehicle in each of the compound dilutions was the same.
Positive Controls: Purified human FSH (>98%) was purchased from Cortex Biochem, Inc. (San Leandro, Calif.) and 3-[(2S*,5R*)-5-{[2-(1H-Indol-3-yl)-ethylcarbamoyl]-methyl}-4-oxo-2-(5-phenylethynyl-thiophen-2-yl)-thiazolidin-3-yl]-benzamide (an FSH-R thiazolidinone antagonist) was prepared by processes described by R. A. Scheuerman et al. in U.S. Pat. No. 6,426,357 (Affymax).
The CHO FSH-R 6CRE-Luc cells (1D7 cells) were obtained from Affymax (Palo Alto, Calif.). These Chinese hamster ovary cells (CHO-K1) were engineered genetically to stably express the recombinant human FSH receptor gene and a luciferase reporter gene under the regulation of 6 copies of a cAMP response element. The cells were plated one day prior to treatment into 96-well white opaque plates at a density of 50,000 cells/100 μl/well in growth medium. On the day of treatment, the growth medium was removed from the wells by aspiration and 50 μl of fresh growth medium was added to each well. The cells were incubated at 37° C. in a humidified incubator with 5% CO2/95% air.
The treated cells were incubated for 4 hours at 37° C. in a humidified incubator with 5% CO2/95% air. At the end of the incubation period, luciferase activity was measured by chemiluminescence using a commercially available kit (LucScreen, Tropix, Inc., Bedford, Mass.) according to the manufacturer's specifications, except that Buffer 1 and Buffer 2 were mixed together in equal proportion prior to the addition of 100 μl of the combined reagents to each well. Chemiluminescence was detected using a luminometer (EG & G Berthold Microlumat LB 96 P, Wallac, Gaithersburg, Md.) with chemiluminescence measured for 1 sec/well. Background luminescence was measured for each well prior to the addition of the LucScreen reagent.
In the 96-well 2-dose format, each compound was tested in duplicate at each dose. […] One plate was used to test a maximum of 22 compounds.
The EC50 of purified human FSH alone was tested in triplicate with each test compound. The doses chosen to test each compound were extrapolated from the initial 2-dose screening process. Along with the test compounds, purified human FSH also was tested in a dose response (0.03, 0.1, 0.3, 1, 3, 10, and 30 ng/ml) for a positive control and quality control. One plate was used for 3 test compounds and the FSH positive control.
Luciferase activity is expressed as relative light units/sec/well. Luciferase activity in antagonist was compared to the appropriate negative and positive controls. For 2-dose testing, results are reported as luciferase activity and are expressed as percent inhibition of the response obtained from the EC50 of FSH.

[1] = 2-dose format, concentration in parentheses 30 μM, inhibition of the response to EC50 of FSH

Row | Compound | melting point [°C] | inhibition at 30 µM (human FSH receptor; [1]) [%] | IC50 (human FSH receptor) [µM] | CRE % inhibition (μM) (human FSH receptor; [1])
1 | COc1ccccc1-c1ccc(C(=O)N2Cc3ccc(C(=O)NCc4c(Cl)cccc4Oc4ccccc4)n3Cc3ccccc32)cc1 [Example 3, N-(2-CHLORO-6-PHENOXYBENZYL)-10-[(2′-METHOXY-1,1′-BIPHENYL-4-YL)CARBONYL]-10,11-DIHYDRO-5H-PYRROLO[2,1-C][1,4]BENZODIAZEPINE-3-CARBOXAMIDE] | – | 8 | – | –
2 | COc1ccccc1-c1ccc(C(=O)N2Cc3ccc(C(=O)N[C@@H](CO)c4ccccc4)n3Cc3ccccc32)cc1 [Example 4] | 195 to 196 | 9 | – | –
3 | COc1ccccc1-c1ccc(C(=O)N2Cc3ccc(C(=O)N[C@H](CO)c4ccccc4)n3Cc3ccccc32)cc1 [Example 5] | 196 to 197 | 14 | – | –
4 | Cc1ccccc1-c1ccc(C(=O)N2Cc3ccc(C(=O)NCc4ccc(O)cc4)n3Cc3ccccc32)cc1C [Example 9] | – | 37 | – | –
5 | Cc1ccccc1-c1ccc(C(=O)N2Cc3ccc(C(=O)NCc4ccc(CN)cc4)n3Cc3ccccc32)cc1C [Example 11] | – | – | 14.9 | –
6 | Cc1ccccc1-c1ccc(C(=O)N2Cc3ccc(C(=O)NCc4cccc(CN)c4)n3Cc3ccccc32)cc1C [Example 12] | – | – | 11.9 | –
7 | Cc1ccccc1-c1ccc(C(=O)N2Cc3ccc(C(=O)NC(C)c4ccccc4)n3Cc3ccccc32)cc1C (centres unmarked) [Example 13] | 118 to 124 | – | 8.2 | –
8 | Cc1ccccc1-c1ccc(C(=O)N2Cc3ccc(C(=O)NCc4ccc(OC(F)(F)F)cc4)n3Cc3ccccc32)cc1C [Example 19] | 147 to 149 | 30 | – | –
9 | Cc1ccccc1-c1ccc(C(=O)N2Cc3ccc(C(=O)NCc4ccccc4C(F)(F)F)n3Cc3ccccc32)cc1C [Example 24] | 126 to 128 | – | > 30 | –
10 | Cc1ccccc1-c1ccc(C(=O)N2Cc3ccc(C(=O)NCCCc4ccccc4)n3Cc3ccccc32)cc1C [Example 25] | 183 to 184 | 59 | – | –
11 | Cc1ccccc1-c1ccc(C(=O)N2Cc3ccc(C(=O)NCCc4cccc(Cl)c4)n3Cc3ccccc32)cc1C [Example 26] | 174 to 176 | 62 | – | –
12 | Cc1ccccc1-c1ccc(C(=O)N2Cc3ccc(C(=O)NCCc4ccc(Cl)cc4)n3Cc3ccccc32)cc1C [Example 27] | 169 to 171 | 52 | – | –
13 | COc1ccc(CCNC(=O)c2ccc3n2Cc2ccccc2N(C(=O)c2ccc(-c4ccccc4C)c(C)c2)C3)cc1OC [Example 28, N-[2-(3,4-DIMETHOXYPHENYL)ETHYL]-10-[(2,2′-DIMETHYL-1,1′-BIPHENYL-4-YL)CARBONYL]-10,11- DIHYDRO-5H-PYRROLO[2,1-C][1,4]BENZODIAZEPINE-3-CARBOXAMIDE] | 130 to 136 | – | > 30 | –
14 | Cc1ccc(CCNC(=O)c2ccc3n2Cc2ccccc2N(C(=O)c2ccc(-c4ccccc4C)c(C)c2)C3)cc1 [Example 29] | 161 to 163 | 52 | – | –
15 | COc1ccc(CCNC(=O)c2ccc3n2Cc2ccccc2N(C(=O)c2ccc(-c4ccccc4C)c(C)c2)C3)cc1 [Example 30] | 170 to 172 | 62 | – | –
16 | COc1cc(C(=O)N2Cc3ccc(C(=O)NCCc4cccc(Cl)c4)n3Cc3ccccc32)ccc1-c1ccccc1C [Example 51, N-[2-(3-CHLOROPHENYLETHYL]-10-[(2-METHOXY-2′-METHYL-1,1′-BIPHENYL-4-YL)CARBONYL]-10,11-DIHYDRO-5H-PYRROLO[2,1-C][1,4]BENZODIAZEPINE-3-CARBOXAMIDE] | – | – | > 30 | –
17 | Cc1cc(Cl)ccc1OCC(=O)N1Cc2ccc(C(=O)NCc3ccc4c(c3)OCO4)n2Cc2ccccc21 [Example 76] | – | – | – | 15(30) %

Now from value to molecule, other results behind:

Row | melting point [°C] | inhibition at 30 µM (human FSH receptor; [1]) [%] | IC50 (human FSH receptor) [µM] | Compound | CRE % inhibition (μM) (human FSH receptor; [1])
18 | 154 to 157 | – | – | Cc1ccccc1-c1ccc(C(=O)N2Cc3ccc(C(=O)NCCc4ccc5c(c4)OCO5)n3Cc3ccccc32)cc1C (as salt: hydrochloride) [Example 33] | –
19 | 152 to 154 | – | ~30 | Cc1ccccc1-c1ccc(C(=O)N2Cc3ccc(C(=O)NC(C)CCc4ccccc4)n3Cc3ccccc32)cc1C (centres unmarked) [Example 32] | –
20 | 178 to 179 | 60 | – | COc1ccc(CNC(=O)c2ccc3n2Cc2ccccc2N(C(=O)c2ccc(-c4ccccc4C)c(OC)c2)C3)cc1 [Example 36, N-(4-METHOXYBENZYL)-10-[(2-METHOXY-2′-METHYL-1,1′-BIPHENYL-4-YL)CARBONYL]-10,11-DIHYDRO-5H-PYRROLO[2,1-C][1,4]BENZODIAZEPINE-3-CARBOXAMIDE] | –
21 | 165 to 167 | – | > 30 | COc1cc(C(=O)N2Cc3ccc(C(=O)NCc4ccccc4C(F)(F)F)n3Cc3ccccc32)ccc1-c1ccccc1C [Example 39, 10-[(2-METHOXY-2′-METHYL-1,1′-BIPHENYL-4-YL)CARBONYL]-N-[2-(TRIFLUOROMETHYL)BENZYL]-10,11-DIHYDRO-5H-PYRROLO[2,1-C][1,4]BENZODIAZEPINE-3-CARBOXAMIDE] | –
22 | 204 | 62 | – | COc1cc(C(=O)N2Cc3ccc(C(=O)NCc4ccccc4C)n3Cc3ccccc32)ccc1-c1ccccc1C [Example 41, 10-[(2-METHOXY-2′-METHYL-1,1′-BIPHENYL-4-YL)CARBONYL]-N-(2-METHYLBENZYL)-10,11-DIHYDRO-5H-PYRROLO[2,1-C][1,4]BENZODIAZEPINE-3-CARBOXAMIDE] | –
23 | 218 to 219 | 56 | – | COc1cc(C(=O)N2Cc3ccc(C(=O)NCc4ccc(Cl)cc4)n3Cc3ccccc32)ccc1-c1ccccc1C [Example 43, N-(4-CHLOROBENZYL)-10-[(2-METHOXY-2′-METHYL-1,1′-BIPHENYL-4-YL)CARBONYL]-10,11-DIHYDRO-5H-PYRROLO[2,1-C][1,4]BENZODIAZEPINE-3-CARBOXAMIDE] | –
24 | 129 to 131 | – | – | Cc1ccccc1-c1ccc(C(=O)N2Cc3ccc(C(=O)NCCCCc4ccccc4)n3Cc3ccccc32)cc1C [Example 56] | –
25 | 178 to 179 | – | – | COc1cc(C(=O)N2Cc3ccc(C(=O)NCCc4ccc5c(c4)OCO5)n3Cc3ccccc32)ccc1-c1ccccc1C [Example 62, N-[2-(1,3-BENZODIOXOL-5-YL)ETHYL]-10-[(2-METHOXY-2′-METHYL-1,1′-BIPHENYL-4-YL)CARBONYL]-10,11-DIHYDRO-5H-PYRROLO[2,1-C][1,4]BENZODIAZEPINE-3-CARBOXAMIDE] | –
